Experimental data from patent US5298491A, “Derivatives of endogenous mediators, their salts, method of preparation, applications and compositions in which they are present” (priority 1990, dated 1994).
“Also recorded” adds a separate entry of the source. Like-named read-outs stand apart in the source and are kept apart here.

Experiments:
[1] = Passage across the blood-brain barrier after intracardiac injection (brain autoradiography); format: in vivo, mice and guinea-pigs; settings: intracardiac injection; 10 minutes; conclusion
Experimental: 2 mice and 2 guinea-pigs are deeply anaesthetized with chloral hydrate (intraperitoneal injection of 0.12 ml of a 35% solution per 100 g of body weight).
The mice and guinea-pigs receive intracardiac injections of 200 μl and 1.5 ml, respectively, of S--CM-G[^125 I]TNH2.
After 10 minutes, the animals, still under deep anaesthesia, are decapitated and the brains are frozen and stored as indicated in Example 1.
Sections are prepared and autoradiography is carried out as described in Example 1.

[2] = test system: receptor binding sites with a high affinity for serotonin (5-HT1); assay: Displacement, by the derivatives S-CM-R, of the high affinity binding of [3H]5-HT in rat brain sections; settings: 2 nM [3H]5-HT
Description: The distribution of the receptor binding sites with a high affinity for serotonin (5-HT1) is heterogeneous in the central nervous system of the rat (Pazos and Palacios, Brain Research, 346, 1985, p. 205-230; Segu et al., Brain Research, 384, 1986, p. 205-217). Furthermore, the content of subtypes of 5-HT1 sites varies according to the anatomical structure in question.
The protocol for preparing the brain sections is common to all the studies which follow. The animals are decapitated after anaesthesia with chloral hydrate (400 mg/kg of gross weight). The brains are quickly removed from the skull and frozen by immersion in isopentane cooled by liquid nitrogen. 20 μm sections, prepared in a cryostat at -20° C., are mounted on gelatin-coated slides and stored at -20° C.
The sections are preincubated for 1 hour at 4° C. in a Krebs solution (NaCl 118 mM; KCl 4.8 mm; CaCl2 1.2 mM; MgCl2 1.2 mM; Tris-HCl 15 mM, pH 7.4) in order to remove the endogenous ligands.
1. Displacement, by the derivatives S-CM-R, of the high affinity binding of serotonin in rat brain sections
The incubations take place for 60 minutes at 20° C. in a Krebs solution containing 10 μM pargyline, 5.7.10^-4 M ascorbic acid, 2 nM [^3 H]5-HT (NEN, As=30 Ci/mmol) and increasing concentrations of derivatives S-CM-R. The non-specific binding is determined on homothetic sections under the same conditions, but in the presence of 10^-5 M 5-HT.
After incubation, the sections are rinsed three times for 20 seconds in distilled water and dried by a stream of hot air. The sections are affixed to a film (Amersham) for 6 weeks in the presence of a standard ([^3 H] microscale, Amersham). The films are developed for 6 minutes with Kodak D19, rinsed and fixed with AL4 (Kodak). Quantitative analysis of the autoradiographs is performed with an image analysis system (Segu et al., J. Neurosci. Methods, 31, 1990, p. 197-208).

5-HT1A sites = target: T1, 5-HT1A sites (Macaca mulatta, UniProt F7GIU0); assay: Labelling of hippocampus in monkey brain sections (autoradiography); format: binding, monkey (Macacca mulatta n.)
T1 sequence (F7GIU0 1-421): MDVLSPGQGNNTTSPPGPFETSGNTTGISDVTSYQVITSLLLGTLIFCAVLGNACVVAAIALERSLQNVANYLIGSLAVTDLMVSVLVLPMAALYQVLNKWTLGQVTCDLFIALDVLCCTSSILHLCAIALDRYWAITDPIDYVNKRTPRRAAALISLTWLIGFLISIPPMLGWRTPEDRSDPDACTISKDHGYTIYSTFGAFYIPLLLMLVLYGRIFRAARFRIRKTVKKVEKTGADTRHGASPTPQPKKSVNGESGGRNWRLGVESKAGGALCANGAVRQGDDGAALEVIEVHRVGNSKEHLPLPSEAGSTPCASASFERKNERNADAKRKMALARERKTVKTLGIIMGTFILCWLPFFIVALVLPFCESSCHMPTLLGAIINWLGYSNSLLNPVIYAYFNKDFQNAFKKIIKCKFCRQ
Experimental: (§1) A male monkey (Macacca mulatta n.) weighing 8 kg was sacrificed by means of an overdose of barbiturates and exsanguination. […] The right hemisphere is cut out and frozen by isopentane cooled in liquid nitrogen. The block is stored at -20° C. 10 μm thick sections are prepared in a cryostat at -20° C. and placed on gelatin-coated slides (Segu et al., 1990, J. Neurosci. Meth., 31, 197). They are stored at -20° C. until required.
(§2) The sections are preincubated for 1 h at 4° C. in a Krebs solution (mM: NaCl, 118; KCl, 4.5; CaCl2, 1.2; MgCl2, […]; Tris, 15; pH 7.4) in order to remove the endogenous ligands. They are then incubated at 20° C. for 60 minutes in a solution containing 10^-5 M pargyline, 57 mM ascorbic acid, 10 g/l of bovine serum albumin and 0.02 nM S--CM-G[^125 I]TNH2, alone or in the presence of increasing concentrations of serotonin. Some of the sections are incubated under identical conditions except that the radioactive probe is replaced either with 2 nM [^3 H]5-HT, or with 2 nM [^3 H]5-HT in the presence of 100 nM 8-hydroxy-2-[di-N-propylamino]tetralin (8-OH-DPAT) and 100 nM mesulergin, or with 1 nM [^3 H]8-OH-DPAT. After rinsing 2 x for 1 minute in distilled water, the sections are dried.
(§3) The slides are affixed to a tritium-sensitive film for 8 days. […] The autoradiographs are quantified with a video system for image analysis (Segu et al., 1990).

5-HT1D sites [3] = target: T2, 5-HT1D sites (Macaca mulatta, UniProt F6SFA9); assay: Labelling of substantia nigra in monkey brain sections (autoradiography); format: binding, monkey (Macacca mulatta n.)
T2 construct: The right hemisphere is cut out and frozen by isopentane cooled in liquid nitrogen; from tissue; host or cells: rhesus monkey brain sections (right hemisphere, 10 μm, frozen), substantia nigra
Experimental: (§4) A male monkey (Macacca mulatta n.) weighing 8 kg was sacrificed by means of an overdose of barbiturates and exsanguination. […] The right hemisphere is cut out and frozen by isopentane cooled in liquid nitrogen. The block is stored at -20° C. […] They are stored at -20° C. until required.
(§5) Some of the sections are incubated under identical conditions except that the radioactive probe is replaced either with 2 nM [^3 H]5-HT, or with 2 nM [^3 H]5-HT in the presence of 100 nM 8-hydroxy-2-[di-N-propylamino]tetralin (8-OH-DPAT) and 100 nM mesulergin, or with 1 nM [^3 H]8-OH-DPAT. After rinsing 2 x for 1 minute in distilled water, the sections are dried.
(§6) The slides are affixed to a tritium-sensitive film for 8 days. The film is developed for 6 minutes in D19, rinsed and fixed.

5-HT1D sites [4] = target: T2, 5-HT1D sites; assay: Displacement of S-CM-G[125I]TNH2 binding with serotonin in monkey brain sections; set-up: species or system monkey (Macacca mulatta n.); settings: displacement of 0.02 nM S-CM-G[125I]TNH2, read-out: IC50 (concentration which inhibits 50% of the binding)
Experimental: as §1, §2, §3

5-HT1D sites [5] = assay: Labelling of substantia nigra in monkey brain sections (autoradiography); format: binding, monkey (Macacca mulatta n.); settings: 1 nM [3H]8-OH-DPAT
Experimental: as §4, §5, §6

[6] = two-phase process, first site, read-out: IC50 for the first site (displacement of [3H]5-HT)
[7] = two-phase process, second site, read-out: IC50 for the second site (displacement of [3H]5-HT)
[8] = 60 min at 20° C, single IC50, read-out: IC50 (displacement of specific binding of [3H]5-HT)

T2 sequence (F6SFA9 1-390): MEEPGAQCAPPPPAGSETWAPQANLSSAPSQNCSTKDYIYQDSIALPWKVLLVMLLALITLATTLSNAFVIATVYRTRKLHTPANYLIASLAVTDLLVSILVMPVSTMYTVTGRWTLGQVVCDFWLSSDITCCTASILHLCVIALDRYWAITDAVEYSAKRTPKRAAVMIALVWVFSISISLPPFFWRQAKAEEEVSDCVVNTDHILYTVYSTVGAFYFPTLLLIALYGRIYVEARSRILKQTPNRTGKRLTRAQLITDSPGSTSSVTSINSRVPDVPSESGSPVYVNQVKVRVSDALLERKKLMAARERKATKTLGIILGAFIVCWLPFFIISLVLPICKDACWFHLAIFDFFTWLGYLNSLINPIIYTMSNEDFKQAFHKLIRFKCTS

With `NCCc1c[nH]c2ccc(OCC(=O)NCC(=O)N[C@@H](Cc3ccc(O)cc3)C(N)=O)cc12` [S-CM-GTNH2, tryptamine-5-O-carboxymethylglycyltyrosinamide] the “passage across the blood-brain barrier” value [1] was “unable to pass through the blood-brain barrier”, the “phases of displacement of [3H]5-HT specific binding” value (shortened to “phases”) [2] was “two-phase process” and the IC50 [2, 6] was 20 nM. It also gave an IC50 [2, 7] of 400 nM.

For `NCCc1c[nH]c2ccc(OCC(=O)O)cc12` [S--CM], the IC50 [2, 8] was 1000 nM.

For [^3 H]5-HT [reference compound], the “labelling of the hippocampus” value (5-HT1A sites; 2 nM [3H]5-HT) was “substantial labelling; also recorded: showing the total 5-HT1 sites in the hippocampus (H)”, the “labelling of the substantia nigra” value (5-HT1D sites [3]; 2 nM [3H]5-HT) was “substantial labelling; also recorded: showing the total 5-HT1 sites in the hippocampus (H) and the substantia nigra (SN)” and the “labelling of the substantia nigra” value (5-HT1D sites [3]; 2 nM [3H]5-HT in the presence of 100 nM 8-OH-DPAT and 100 nM mesulergin) was “strong reaction with the substantia nigra; also recorded: showing the 5-HT1B sites virtually exclusively located in "the substantia nigra”.

With `NCCc1c[nH]c2ccc(OCC(=O)N[C@@H](Cc3ccc(O)cc3)C(=O)NCC(N)=O)cc12` [S-CM-Tyr-GlyNH2] the “phases” value [2] was “two-phase process”, the IC50 [2, 6] was 20 nM and the IC50 [2, 7] was 400 nM.

For `NCCc1c[nH]c2ccc(O)cc12` [5-HT, reference compound], the “phases” value [2] was “one-phase process”, the IC50 [2, 8] was 2 nM and the IC50 (5-HT1D sites [4]) was ~5 nM.

For `CCCN(CCC)C1CCc2cccc(O)c2C1` (stereo not shown) [[^3 H]8-OH-DPAT, 8-hydroxy-2-[di-N-propylamino]tetralin], the “labelling of the hippocampus” value (5-HT1A sites; 1 nM [3H]8-OH-DPAT) was “intense labelling; also recorded: showing the 5-HT1A sites exclusively located in the hippocampus” and the “labelling of the substantia nigra” value (5-HT1D sites [5]) was “not the substantia nigra”.
